In patent US20140322771A1, “Lipid Production” (THE UNIVERSITY OF QUEENSLAND, priority 2010, published 2014):
“Also recorded” adds a separate entry of the source.

Tests used:
[1] = system: S. cerevisiae WT and sld mutant strains; assay: Formation of supersized lipid droplets (SLDs) in yeast, Nile red staining and fluorescence microscopy; assay type: cell-based, Saccharomyces cerevisiae
Protocol: To screen for yeast mutants that generate supersized LDs, cells were cultured in synthetic complete media (0.67% yeast nitrogen base, 2% dextrose, and amino acids) in 96-well plates at 30° C. till stationary phase. For TetO7-regulated strains, 15 μg/ml doxycycline was added to repress specific genes. Cells were stained with 20 μg/ml Nile red for LDs and observed by fluorescence microscopy. Yeast strains found to contain SLDs were recultured in synthetic complete media with aeration in 10 ml culture tubes to confirm the phenotype. These strains were also grown in YPD media (1% yeast extract, 2% peptone, and 2% dextrose) to examine the morphology of LDs.
For phospholipid precursor treatment, synthetic complete medium was supplemented with 1 mM choline, 1 mM ethanolamine, or 75 μM inositol.
Fluorescent imaging was performed under a Leica CTR5500 microscope (Wetzlar, Germany) with an EL6000 fluorescent lamp. Images were taken with a DFC300 FX digital camera and a Leica LAS AF software. Yeast cells were viewed under a ×100/1.30 oil immersion objective lens. A 450-490-nm bandpass excitation filter, a 510 dichromatic mirror, and a 515-nm longpass emission filter (Leica filter cube I3) were chosen to observe Nile red-stained LDs. For statistical presentation of the percentage of cells containing supersized LDs, 200 cells were observed and percentage was calculated. The experiments were done in triplicates and the result was shown as mean±SD. Mammalian LDs were stained with Bodipy 493/503 (Invitrogen) and observed with a 470/40-nm bandpass excitation filter, a 500-nm dichromatic mirror, and a 525/50-nm bandpass emission filter (Leica filter cube GFP).

[2] = system: lipid droplets of S. cerevisiae mutant strains; assay: Lipidomic analysis of lipid droplets isolated from yeast (PE/PL and PL/TAG ratio); assay type: cell-based, Saccharomyces cerevisiae
Protocol: Lipid droplets were isolated as described in Fei et al. (Fei et al., (2008), “Fld1p, a functional homologue of human seipin, regulates the size of lipid droplets in yeast”, J Cell Biol 180: 473-482).
Lipids were extracted from zymolase-digested lyophilized yeast cells, isolated ER microsomes or lipid droplets. Briefly 900 μl ice-clod chlorofom:methanol (1:2) was added to samples. Mixtures were vigorously vortexed for 1 min, and incubated for 2 h in vacuum container with rotary shaking at 4° C. Then 400 μl ice-cold water and 300 μl chloroform were added, vortexed and incubated on ice for 1 min. After centrifugation at 12000 rpm for 3 min at 4° C., the lower organic phase was collected. Subsequently, 50 μl 1 M HCl and 500 μl chloroform were added to the remainder, vortexed, and incubated on ice for 3 min. The lower organic phase was also collected after centrifugation at 12000 rpm for 3 min at 4° C., and combined with the first extract. The extracted lipids were blown dry with nitrogen gas, and resuspended in solvent for mass spectrometry analysis.
Lipidomic analysis, and quantitative measurement of neutral lipids via thin layer chromatography (TLC) were performed as described in Fei et al. (Fei et al., (2008), “Fld1p, a functional homologue of human seipin, regulates the size of lipid droplets in yeast”, J Cell Biol 180: 473-482) and Low et al. (Low et al., (2008), “Caspase-dependent and -independent lipotoxic cell-death pathways in fission yeast”, J Cell Sci 121: 2671-2684). TLC plates were developed in chloroform/methanol/water (65:25:4) to separate phospholipid species.

[3] = system: Chlamydomonas homologue of CDS1p (gene C—30067); assay: Lipid droplet accumulation in Chlamydomonas after RNAi knockdown of the CDS1p homologue (Nile red); assay type: cell-based; conditions: C. reinhardtii 21 gr transformed with hairpin RNAi construct, compared with wild type
Protocol: A hairpin RNAi construct was made by using 1st-3rd exon of the Chlamydomonas homologue of CDS1p driven by LC8 promoter. The gene name of the homologue is C—30067. The LC8 promoter is from Chlamydomonas.
This construct was transformed into Chlamydomonas using a glass-bead method. The selection marker for transformation was APHVIII, whose expression conferred resistant to paromomysin.
The survival strains on agar plates were screened by using Nile Red staining. 1 ug/ml final concentration of Nile red was used.
A Zeiss fluorescence microscope (Observer.Z1) with GFP filter was used for screening putative RNAi strains.

Molecule: CCCCCCCC/C=C\CCCCCCCC(=O)O [oleate]
- number of cells producing SLD ([1]; pah1Δ cells, supplement 1 mM each (about 3% of cells without supplement)): no effect

Molecule: NCCO [ethanolamine]
- proportion of PE on lipid droplets ([2]; fld1Δ and cds1 cells, SC medium with ethanolamine): significantly increased
- PE to PL ratio of LDs ([2]; ino4Δ cells, SC medium with ethanolamine): moderately increased
- SLD formation ([1]; most of the mutants, SC media supplemented with 1 mM ethanolamine): enhanced SLD formation in most of the mutants

Molecule: O[C@H]1[C@H](O)[C@@H](O)[C@H](O)[C@@H](O)[C@H]1O [inositol]
- phospholipid to TAG ratio of LDs ([2]; cds1 or ino4Δ mutant, inositol supplementation): did not increase
- SLD formation ([1]; all sld mutants, SC media supplemented with 75 μM inositol): reduced the SLD formation in all mutants; also recorded: significant reduction of SLD formation
- biogenesis of supersized LDs ([1]; ino4Δ cells, inositol addition, higher PE to PL ratio persisted): completely abolished the biogenesis of supersized LDs

B1: CDS1 gene RNAi: hairpin RNAi construct of exons 1-3 of the Chlamydomonas CDS1p homologue (C—30067, SEQ ID NO: 41), LC8 promoter (nucleic acid)
DNA: ATGCGACCAAAACAACAAGCTCAGGTCACCGCCGCGGAGGACACCGCGTCGGAGCCGGAGCCGGAGCCCAAGCCCGTGGATCGAAAGTCGAGGCTCAGGTCCTTCCGCGTACGCACCATCTCCTCGGTCTTGCTCATCGGCGGGTTCATCGGCATCATTTGGGCGGGTCATGTGCCGCTTATGTTCTTCATCCTGCTACTCCAGTTCCTGGTGGCCCGGGAGCTCTTCCGCATCGCCTACATAGCGGAGAAGTCCAAACGCAGCC
modifications: LC8 promoter; Hairpin RNAi construct targetting Chlamydomonas sp. CDS1p Homologue
- lipid droplet accumulation [3]: accumulated lipid droplet drastically
